The numbers were not newly measured in patent US20240000142A1, “AEROSOL […] FOR AQUEOUS CANNABINOID COMPOSITIONS” (OMEGA LIFE SCIENCE LTD., priority 2020, published 2024), which cites them from elsewhere.

The conditions of the data set: nicotine as a weak base; "as appreciated by the skilled in the art".

For `CN1CCCC1c1cccnc1` (stereo not shown) [nicotine], the pKa result is recorded as “about 8”.
